Here are results for three molecules from US9782483B2, “Sigma ligands for the prevention and/or treatment of emesis induced by chemotherapy or radiotherapy” (Laboratories Del Dr. Esteve, S.A., priority 2010, dated 2017).

In assay [1] the test system is ferret (Mustela putorius furo). Description: Antiemetic properties against cisplatin-induced emesis in the conscious, unrestrained ferret (telemetry). It counts as in vivo. The note with it: cisplatin 5 mg/kg i.p., 80 mg/kg i.p., multiple dose regimen (9 treatments). How it is done:
The antiemetic properties of compound 63 were assessed in combination with intraperitoneal administration of the chemotherapeutic agent cisplatin in the conscious, unrestrained ferret (Mustela putorius furo).
At least 12 days before their first treatment, ferrets were surgically implanted with telemetry devices. Individual body weights were recorded before treatment, at the time of telemetry device implantation, one day before the initiation of treatment and after completion of the treatment session, at the time of euthanasia, for each animal respectively.
The animals were treated according to the following schedule: […]
Body temperature, abdominal pressure and activity of the abdominal muscle (EMG) were recorded in treated animals, on day 0 and day 7, respectively, starting approximately 1 hour before the first administration of the vehicle and the test item and for at least 72 hours following the first administration of the vehicle and the test item. […]
2.7 Administration of Emetogenic Item • Route: Intraperitoneal. • Method of administration: Bolus injection using a sterile syringe and needle introduced intraperitoneally into the pelvic area. • Frequency: One administration for each animal, on day 0 or 7, one hour after the first treatment with the test item • Volume of administration: 5 mL/kg. • Individual dose volumes were calculated using the latest recorded body weight. […]

The conditions of assay [2]: during Patient-Controlled Analgesia Therapy; Tramèr et al. 1999; cited from earlier work.

Regarding `Cc1cc(OCCN2CCOCC2)nn1-c1ccc2ccccc2c1` [Compound 63, 4-{2-[5-Methyl-1-(naphthalen-2-yl)-1H-pyrazol-3-yloxy]ethyl}morpholine], in assay [1] (delayed phase 18 to 72 hours, vs vehicle), the “number of emetic events during the delayed phase” value is given as “markedly decreased”. Besides, in assay [1] (delayed phase, between 62 and 63 hours), the “maximum total number of emetic events (EE)” value came to 39 EE. With `Cc1nccn1CC1CCc2c(c3ccccc3n2C)C1=O` (stereo not shown) [ondasetron], the antinausea effect result in assay [2] is recorded as “no evidence of any antinausea effect”. For the molecule `CN1[C@@H]2CC[C@H]1C[C@@H](OC(=O)c1c[nH]c3ccccc13)C2` [tropisetron], the antinausea effect entry in assay [2] was “no evidence of any antinausea effect”.
